Data set [1] deals with human Arginine Vasopressin Receptor 1a (AVPR1a) (Homo sapiens (Human), UniProt P37288). The data set can be described thus: Vasopressin V1A receptor antagonist assay (AVP-evoked calcium, FLIPR, CHO-AVPR1a cells). The format is cell-based. Summed up:
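CHO cells expressing human AVPR1a, Calcium-6 dye loaded 60-90 min, preincubated with compound 15 min at 37° C., then challenged with AVP at its daily-determined EC80. FLIPR fluorescence; 10-point 1:3 series from 3 μM, duplicates.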

Data set [2] has as its target human Arginine Vasopressin Receptor 1b (AVPR1b) (Homo sapiens (Human), UniProt P47901). The data set can be described thus: Vasopressin V1B receptor antagonist assay (AVP-evoked calcium, FLIPR, CHO-AVPR1b cells). The format is cell-based. The method, then:
The purpose of the assay is to determine the inhibitory effect of synthesized compounds on the Vasopressin V1b receptor. The assay was performed in Chinese Hamster Ovary (CHO) cells expressing the human Arginine Vasopressin Receptor 1b (AVPR1b). Arginine Vasopressin (AVP) evokes an increase in intracellular calcium in CHO-AVPR1b cells which is measured in a fluorescence assay on the FLIPR^TETRA using calcium sensitive dyes. Test compounds were assessed for their ability to affect the magnitude of the response to AVP, with antagonists showing a concentration-dependent reduction in the AVP-mediated fluorescence.
CHO-AVPR1b cells were maintained in routine culture in T175 Flasks at 37° C., 5% CO2. The growth medium consisted of Ham's F12 media supplemented with 10% v/v fetal bovine serum, 1× non-essential amino acids, and 0.4 mg/ml Geneticin G418.
Cells were harvested from T175 flasks when they were 80-90% confluent by first washing the cell monolayer with PBS and then dissociated using trypsin 0.05%/EDTA (3 mL for a T175 Flask). The flasks were incubated at room temperature until the cells detached. To the cell suspension, 10 ml of growth media was added and the cell density determined using the Vi-Cell automated cell counter. The cells were spun at 1000 rpm for 3 minutes, then the supernatant was carefully removed and discarded. The cell pellet was re-suspended at 6.0e^5 cells/ml in growth media. 25 μL of cells in growth media was dispensed into each well (15,000 cells per well) of a poly-D-lysine coated black, clear bottomed, 384-well plate. The plates were incubated at 37° C., 5% CO2 overnight.
At the start of each assay day, the potency of AVP is assessed and an EC80 concentration determined for subsequent compound profiling. Assays were performed using a two-step addition protocol on the FLIPR^TETRA; first addition of 5 μl of control or test compound at 10× final in assay buffer with 15 min incubation at 37° C., 5% CO2 followed by 10 μl of AVP at 6× final concentration in assay buffer. Changes in fluorescence were monitored for 3 min after both additions on the FLIPR^TETRA using 470-495 nm excitation and 515-575 nm emission wavelengths. The assay buffer consisted of HBSS (+Ca/+Mg) supplemented with 20 mM HEPES, and for the preparation of the AVP agonist only, 0.1% w/v bovine serum albumin. The assay was initiated by the removal of growth media from the cells and replacement with 45 μl of Calcium-6 dye (Molecular Devices) prepared at 1× in assay buffer. Cells were loaded with dye for 60-90 min at 37° C., 5% CO2 before initiation of the FLIPR^TETRA protocol. […] For compound profiling, test compounds were first serially diluted in DMSO (10-point curve, 1:3 dilutions) then diluted 33.3-fold in assay buffer prior to addition to the dye loaded cells on the FLIPR^TETRA. At the end of the incubation period 10 μl of AVP in assay buffer containing 0.1% BSA was added at the previously determined EC80 concentration.
In-plate controls for the assay include a Nelivaptan concentration-response curve as the reference V1b antagonist and an AVP concentration-response curve to confirm the reproducibility of the EC80 used for the compound challenge.

For data set [3], the target named is human Oxytocin Receptor (hOTR) (Homo sapiens (Human), UniProt P30559). Kind of data set: Oxytocin receptor antagonist assay (oxytocin-evoked calcium, FLIPR, CHEM-1-hOTR cells). The format is cell-based. To be noted: read-out: OT IC50. As for the experimental part: This assay was performed in CHEM-1 cells expressing the human Oxytocin Receptor (hOTR) to determine the inhibitory effect of the compounds of the invention on the human Oxytocin receptor. Oxytocin evokes an increase in intracellular calcium in CHEM-1-hOTR cells which is measured in a fluorescence assay on the FLIPR^TETRA using calcium sensitive dyes. Test compounds were assessed for their ability to affect the magnitude of the response to oxytocin, with antagonists showing a concentration-dependent reduction in the oxytocin-mediated fluorescence.
CHEM-1-hOTR ready was used to assay frozen cells (Eurofins #HTS090RTA) which are supplied with a proprietary Media Component.
Cells were thawed in a 37° C. water bath and diluted with the supplied Media Component to a final volume of 10 ml. The cell suspension was centrifuged at 1000 rpm for 3 min at room temperature and the supernatant was discarded. The cell pellet was resuspended in Media Component (10.5 ml) and the cells (25 μL) were dispensed into a poly-D-lysine coated black, clear bottomed, 384-well plate. The plates were incubated overnight at 37° C., 5% CO2.
At the start of each assay day the potency of oxytocin was assessed and an EC80 concentration was determined for subsequent compound profiling. Assays were performed using a two-step addition protocol on the FLIPR^TETRA; first addition of 5 μl of control or test compound at 10× final in assay buffer with 15 min incubation at 37° C., 5% CO2 followed by 10 μl of oxytocin at 6× final concentration in assay buffer. Changes in fluorescence were monitored for 3 min after both additions on the FLIPR^TETRA using 470-495 nm excitation and 515-575 nm emission wavelengths. The assay buffer consisted of HBSS (+Ca/+Mg) supplemented with 20 mM HEPES, and for the preparation of the oxytocin agonist only, 0.1% w/v bovine serum albumin. The assay was initiated by the removal of growth media from the cells and replaced with 45 μl of Calcium-6 dye (Molecular Devices) prepared at 1× in assay buffer. Cells were loaded with dye for 60-90 min at 37° C., 5% CO2 before initiation of the FLIPR^TETRA protocol. […] For compound profiling, test compounds were first serially diluted in DMSO (10-point curve, 1:3 dilutions) then diluted 33.3-fold in assay buffer prior to addition to the dye loaded cells on the FLIPR^TETRA. At the end of the incubation period 10 μl of oxytocin in assay buffer containing 0.1% BSA was added at the previously determined EC80 concentration.
In-plate controls for the assay include a L-368,899 concentration-response curve as the reference OTR antagonist and an oxytocin concentration-response curve to confirm the reproducibility of the EC80 used for the compound challenge.

The next data set deals with MDR1 (P-glycoprotein). The data set can be described thus: MDR1-MDCK effective efflux assay (Transwell, 10 μM, 1 hour), MDR1-MDCK cells. The class given is in vitro ADME. Particulars: dog, MDCK-MDR1, pH 7.4, MDR1-MDCK cells, apical to basolateral (A>B), 10 μM, 1 hour; read-out: Papp AB MDR1. The method, then:
(§1) The MDR1-MDCK effective efflux assay was performed as described in the BioFocus Standard Operating Procedure, ADME-SOP-56. Both wild-type (WT) and MDR1-MDCK cells (Solvo Biotechnology) were seeded onto 24-well Transwell plates at 2.35×10^5 cells per well and used in confluent monolayers after a 3 day culture at 37° C. under 5% CO2. For both cell types, test and control compounds (propranolol, vinblastine) were added (10 μM, 0.1% DMSO final, n=2) to donor compartments of the Transwell plate assembly in assay buffer (Hanks balanced salt solution supplemented with 25 mM HEPES, adjusted to pH 7.4) for both apical to basolateral (A>B) and basolateral to apical (B>A) measurements. Incubations were performed at 37° C., with samples removed from both donor and acceptor chambers at T=0 and 1 hour and compound analysed by mass spectrometry (LC-MS/MS) including an analytical internal standard.
(§2) Where V is the volume of each Transwell compartment (apical 125 basolateral 600 and concentrations are the relative MS responses for compound (normalized to internal standard) in the donor chamber before incubation and acceptor chamber at the end of the incubation. Area=area of cells exposed for drug transfer (0.33 cm2).
(§3) Efflux ratios (Papp B>A/Papp A>B) were calculated for each compound from the mean Papp values in each direction for both wild-type and MDR1-MDCK cells.
(§4) In order to confirm the involvement of MDR1 in any efflux seen, an “effective efflux ratio” (EER) was calculated by comparing compound efflux ratios (ER) in the two cell types, i.e. EER=ER(MDR1−MDCK)/ER(wild-type MDCK)
(§5) This ratio illustrates the effect of the over-expressed MDR1 normalised for the background movement of compound through the wild-type cells.
(§6) Lucifer Yellow (LY) was added to the apical buffer in all wells to assess viability of the cell layer. Compound recovery from the wells was determined from MS responses (normalized to internal standard) in donor and acceptor chambers at the end of incubation compared to response in the donor chamber pre-incubation.

Data set [4] in a line: MDR1-MDCK effective efflux assay (Transwell, 10 μM, 1 hour), wild-type MDCK cells. The format is in vitro ADME. Particulars: dog, MDCK, pH 7.4, wild-type MDCK cells, apical to basolateral (A>B), 10 μM, 1 hour; read-out: Papp AB WT. The method, then: as §1, §2, §3, §4, §5, §6
Data set [5] deals with human Arginine Vasopressin Receptor V2 (AVPR2) (Homo sapiens (Human), UniProt P30518). The data set can be described thus: Vasopressin V2 receptor antagonist assay (cAMP TR-FRET, 1321N1 cells). The format is cell-based. The method, then: The purpose of the assay was to determine the inhibitory effect of synthesized compounds on the Vasopressin receptor 2. […] Arginine Vasopressin (AVP) evokes an increase in intracellular cAMP in these cells which is measured in a TR-FRET assay using a Europium cAMP tracer and ULight labelled antibody reagents contained in a LANCE Ultra cAMP kit (Perkin Elmer #TRF0263). […] Test compounds were assessed for their ability to affect the magnitude of the response to AVP, with antagonists showing a concentration-dependent decrease in the AVP-mediated reduction in TR-FRET signal.
cAMPZen V2 assay ready cells were thawed at 37° C. and resuspended directly from frozen in 9 ml growth medium consisting of DMEM supplemented with 10% v/v fetal bovine serum, 1× non-essential amino acids, and 1 mM sodium pyruvate. Cells were spun at 1000 rpm for 3 minutes and the supernatant was carefully removed and discarded. The pellet was resuspended in 5 ml stimulation buffer and the cell density determined using the Vi-Cell automated cell counter. The cell suspension was diluted to a 0.2×10^6/ml suspension ready for plating. […] Stimulation buffer consisted of HBSS (+Ca/+Mg) supplemented with 5 mM HEPES, 0.1% BSA stabiliser and 0.5 mM IBMX.
At the start of each assay day the potency of AVP was assessed and an EC80 concentration determined for subsequent compound profiling. Assays were performed by first an addition of 2.5 μl of control or test compound at 4× final concentration in stimulation buffer followed by 2.5 μl of AVP at 4× final concentration in stimulation buffer. After a 1 hour reaction, detection reagents were added by first an addition of 5 μl EU-cAMP tracer, followed by 5 μl ULight-anti-cAMP both diluted as per the manufacturer's instructions. […] For compound profiling, test compounds were dispensed by the Labcyte Echo (10-point curve, 1:3 dilutions) in a target 0.1 μl volume then diluted 750-fold in stimulation buffer containing 3% DMSO prior to addition to the cells. At the end of the incubation period, 2.5 μl of AVP in stimulation buffer was added at the previously determined EC80 concentration.

The values that follow come from patent US11186577B2, “Vasopressin receptor antagonists and products and methods related thereto” (BlackThorn Therapeutics, Inc., priority 2017, dated 2021).

Read-outs that look alike come from different tables or passages of the source. A value given as a limit tells only on which side of the number the result lay.

Sequence of human Arginine Vasopressin Receptor 1a (AVPR1a) (P37288 whole entry): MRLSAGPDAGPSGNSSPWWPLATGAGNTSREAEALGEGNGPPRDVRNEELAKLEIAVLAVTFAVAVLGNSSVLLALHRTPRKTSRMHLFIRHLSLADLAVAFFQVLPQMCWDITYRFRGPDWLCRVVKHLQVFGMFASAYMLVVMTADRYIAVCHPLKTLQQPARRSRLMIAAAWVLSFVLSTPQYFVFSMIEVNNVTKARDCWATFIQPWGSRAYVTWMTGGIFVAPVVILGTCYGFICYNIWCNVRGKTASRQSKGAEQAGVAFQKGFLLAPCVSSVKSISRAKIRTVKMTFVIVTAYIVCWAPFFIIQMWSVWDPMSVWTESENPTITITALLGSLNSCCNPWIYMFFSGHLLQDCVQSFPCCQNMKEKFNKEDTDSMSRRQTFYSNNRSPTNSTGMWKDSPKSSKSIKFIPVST
Sequence of human Arginine Vasopressin Receptor 1b (AVPR1b) (P47901 whole entry): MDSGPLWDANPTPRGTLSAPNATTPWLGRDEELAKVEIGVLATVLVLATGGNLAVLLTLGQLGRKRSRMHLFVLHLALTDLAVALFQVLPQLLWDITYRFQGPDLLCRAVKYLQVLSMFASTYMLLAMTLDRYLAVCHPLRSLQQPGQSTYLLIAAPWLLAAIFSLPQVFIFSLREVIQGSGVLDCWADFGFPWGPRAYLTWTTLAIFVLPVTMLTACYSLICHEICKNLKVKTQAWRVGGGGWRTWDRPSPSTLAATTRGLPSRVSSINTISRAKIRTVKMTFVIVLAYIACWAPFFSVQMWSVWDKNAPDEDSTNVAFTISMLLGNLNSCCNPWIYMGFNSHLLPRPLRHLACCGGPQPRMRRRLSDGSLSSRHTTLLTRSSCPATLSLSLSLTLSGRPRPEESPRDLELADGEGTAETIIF
Sequence of human Oxytocin Receptor (hOTR) (P30559 whole entry): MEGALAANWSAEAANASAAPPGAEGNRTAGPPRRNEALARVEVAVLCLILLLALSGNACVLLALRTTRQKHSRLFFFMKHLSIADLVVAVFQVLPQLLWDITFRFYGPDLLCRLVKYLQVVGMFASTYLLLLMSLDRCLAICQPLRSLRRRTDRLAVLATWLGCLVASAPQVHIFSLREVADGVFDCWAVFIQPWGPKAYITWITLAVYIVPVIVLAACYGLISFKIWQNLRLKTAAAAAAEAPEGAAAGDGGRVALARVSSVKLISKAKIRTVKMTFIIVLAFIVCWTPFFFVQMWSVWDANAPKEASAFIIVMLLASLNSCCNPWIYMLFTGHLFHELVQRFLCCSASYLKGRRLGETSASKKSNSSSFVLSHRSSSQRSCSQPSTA
Sequence of human Arginine Vasopressin Receptor V2 (AVPR2) (P30518 whole entry): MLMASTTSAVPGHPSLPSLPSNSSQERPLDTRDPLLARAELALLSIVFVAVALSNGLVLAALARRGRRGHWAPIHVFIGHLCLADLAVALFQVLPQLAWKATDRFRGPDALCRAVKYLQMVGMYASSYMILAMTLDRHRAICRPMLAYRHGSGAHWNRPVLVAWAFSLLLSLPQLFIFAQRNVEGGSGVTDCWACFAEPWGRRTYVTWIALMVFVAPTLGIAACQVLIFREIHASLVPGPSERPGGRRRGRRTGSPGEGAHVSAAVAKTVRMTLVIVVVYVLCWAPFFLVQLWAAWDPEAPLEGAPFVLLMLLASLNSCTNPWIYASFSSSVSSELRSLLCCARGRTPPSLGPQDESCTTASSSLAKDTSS

Take `CC(C)OC(=O)N1Cc2cc(Cl)ccc2-n2c(C3CC4(C3)CN(c3cccc(C#N)n3)C4)nnc2C1C` (single isomer, unassigned) [Cpd 204A]: the 50% inhibitory concentration (IC50) in data set [1] (read-out: V1a IC50) was under 100 nM; in data set [2], over 1000 nM; in data set [3], 100 to 500 nM.

Take `CC(C)OC(=O)N1Cc2cc(Cl)ccc2-n2c(C3CC4(C3)CN(c3cccc(C#N)n3)C4)nnc2C1C` (single isomer, unassigned) [Cpd 204B]: the concentration for half-maximal inhibition (IC50) was 100 to 500 nM in data set [1] (read-out: V1a IC50), over 1000 nM in data set [2] and over 1000 nM in data set [3].

Consider `CC1c2nnc(C3CC4(C3)CN(c3ncccn3)C4)n2-c2ccc(Cl)cc2CN1C(=O)OC1(C)CC1` (single isomer, unassigned) [Cpd 205A], for which the concentration for half-maximal inhibition (IC50) in data set [1] (read-out: V1a IC50) was under 100 nM; in data set [2], over 1000 nM; in data set [3], 500 to 1000 nM.

For `CC1c2nnc(C3CC4(C3)CN(c3ncccn3)C4)n2-c2ccc(Cl)cc2CN1C(=O)OC1(C)CC1` (single isomer, unassigned) [Cpd 205B], the 50% inhibitory concentration (IC50) in data set [1] (read-out: V1a IC50), in data set [2] and in data set [3] was over 1000 nM throughout.

For the molecule `CC1c2nnc(C3CC4(C3)CN(c3ccc(F)cn3)C4)n2-c2ccc(Cl)cc2CN1C(=O)OC(C)(C)CF` (single isomer, unassigned) [Cpd 206A], the concentration for half-maximal inhibition (IC50) in data set [1] (read-out: V1a IC50) was under 100 nM; in data set [2] it was over 1000 nM; in data set [3], 100 to 500 nM.

`CC1c2nnc(C3CC4(C3)CN(c3ccc(F)cn3)C4)n2-c2ccc(Cl)cc2CN1C(=O)OC(C)(C)CF` (single isomer, unassigned) [Cpd 206B]: the IC50 in data set [1] (read-out: V1a IC50) is 100 to 500 nM; in data set [2], over 1000 nM; in data set [3], over 1000 nM.

Consider `CC1c2nnc(C3CC4(C3)CN(c3ncccn3)C4)n2-c2ccc(Cl)cc2CN1C(=O)OC(C)(C)CF` (stereo not drawn) [compound 196], for which the figures for the half-inhibitory concentration (IC50) in data set [1] (read-out: V1a IC50), in data set [2] and in data set [3] were under 100 nM, over 1000 nM and over 1000 nM, respectively.

As for `CCC1c2nnc(C3CC4(C3)CN(c3ccc(F)cn3)C4)n2-c2ccc(Cl)cc2CN1C(=O)OC` (stereo not drawn) [compound 197, methyl 8-chloro-4-ethyl-1-(2-(5-fluoropyridin-2-yl)-2-azaspiro[3.3]heptan-6-yl)-4H-benzo[f][1,2,4]triazolo[4,3-a][1,4]diazepine-5(6H)-carboxylate], the IC50 in data set [1] lay within 100 to 500 nM. For the same molecule, the Papp A→B at 1 h, 10 μM (in the data set on MDR1 (P-glycoprotein); in data set [4]) was over 20 ×10⁻⁶ cm/s in each case.

In the case of `COC(=O)N1Cc2cc(Cl)ccc2-n2c(C3CC4(C3)CN(c3ncccn3)C4)nnc2C12CC2` [compound 199], the IC50 in data set [1] (read-out: V1a IC50) was under 100 nM; in data set [2], over 1000 nM; in data set [3], over 1000 nM.

Regarding `Cc1nc(N2CC3(CC(c4nnc5n4-c4ccc(Cl)cc4CN(C4CC4)C5)C3)C2)ccc1F` [compound 229], the 50% inhibitory concentration (IC50) is under 100 nM in data set [1] (read-out: V1a IC50), under 100 nM in data set [5] and 500 to 1000 nM in data set [3].
